{
  "source": "paper PMC8179109",
  "about": "“Introducing affinity and selectivity into galectin-targeting nanoparticles with fluorinated glycan ligands” (Chemical Science, 2020)",
  "target": "T1, BiGalHexNAcP (Bifidobacterium longum, UniProt A0ACD7UTG9)",
  "T1 construct": "gene BLIJ_2251",
  "T1 sequence (A0ACD7UTG9 entry or part of it)": "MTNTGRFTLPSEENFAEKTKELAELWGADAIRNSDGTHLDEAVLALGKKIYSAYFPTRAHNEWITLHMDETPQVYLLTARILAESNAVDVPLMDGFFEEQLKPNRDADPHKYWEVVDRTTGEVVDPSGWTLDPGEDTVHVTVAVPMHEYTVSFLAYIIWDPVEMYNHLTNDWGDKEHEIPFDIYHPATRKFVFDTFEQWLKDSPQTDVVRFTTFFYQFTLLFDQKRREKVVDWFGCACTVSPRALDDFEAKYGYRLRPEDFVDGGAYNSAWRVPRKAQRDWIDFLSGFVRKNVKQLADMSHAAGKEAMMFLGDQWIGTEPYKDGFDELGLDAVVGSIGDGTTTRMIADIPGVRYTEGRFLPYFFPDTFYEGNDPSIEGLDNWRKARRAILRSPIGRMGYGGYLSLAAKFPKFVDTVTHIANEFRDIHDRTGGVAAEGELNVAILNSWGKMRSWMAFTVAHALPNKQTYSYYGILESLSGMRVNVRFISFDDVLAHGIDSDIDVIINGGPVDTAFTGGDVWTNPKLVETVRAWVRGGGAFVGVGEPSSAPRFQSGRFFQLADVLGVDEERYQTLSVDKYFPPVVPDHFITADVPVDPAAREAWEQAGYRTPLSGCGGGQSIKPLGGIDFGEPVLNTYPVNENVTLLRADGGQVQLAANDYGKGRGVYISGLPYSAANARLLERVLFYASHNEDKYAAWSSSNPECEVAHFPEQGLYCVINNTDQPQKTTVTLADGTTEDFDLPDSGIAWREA",
  "assay": "one-pot two-enzyme synthesis of disaccharide (reverse phosphorolysis)",
  "type": "biochemical",
  "conditions": "acceptor; donor galactose 1-phosphate formed in situ by BiGalK; isolated on semi-preparative scale",
  "data": [
    {"smiles": "CC(=O)N[C@H]1[C@H](OCCCN=[N+]=[N-])O[C@H](CO)[C@@H](O)[C@@H]1O[C@@H]1O[C@H](CO)[C@H](O)[C@H](O)[C@H]1O", "note": "[compound 15]", "values": [
      {"measurement": "one-pot two-enzyme synthesis of disaccharide (reverse phosphorolysis)", "result": "Lacto-N-biose and fluorinated derivatives were efficiently synthesized on semi-preparative scale"}
    ]}
  ]
}
